The term EC50 denotes the concentration giving half of the maximal effect.

Structures are written as SMILES.

This is an account of results in patent US9403808B2, “Pyrazine derivatives” (Hoffmann-La Roche Inc., priority 2011, dated 2016).

For one test, the target named is human CB2 receptors (Homo sapiens (Human), UniProt P34972). Briefly: functional cAMP assay, CB2.
human CB2 receptors, sequence (P34972 whole entry): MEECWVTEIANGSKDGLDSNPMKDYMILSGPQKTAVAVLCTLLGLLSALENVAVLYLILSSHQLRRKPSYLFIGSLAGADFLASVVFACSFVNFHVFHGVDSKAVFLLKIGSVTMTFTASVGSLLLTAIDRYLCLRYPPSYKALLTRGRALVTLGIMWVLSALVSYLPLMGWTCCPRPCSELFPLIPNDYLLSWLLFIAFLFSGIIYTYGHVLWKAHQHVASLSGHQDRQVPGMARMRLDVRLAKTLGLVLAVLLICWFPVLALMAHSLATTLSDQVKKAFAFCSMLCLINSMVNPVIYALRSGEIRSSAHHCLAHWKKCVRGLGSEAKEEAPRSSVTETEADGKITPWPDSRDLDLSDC
Settings: not given
Type of test: cell-based. As for the experimental part:
CHO cells expressing human CB1 or CB2 receptors are seeded 17-24 hours prior to the experiment 50.000 cells per well in a black 96 well plate with flat clear bottom (Corning Costar #3904) in DMEM (Invitrogen No. 31331), 1×HT supplement, with 10% fetal calf serum and incubated at 5% CO2 and 37° C. in a humidified incubator. The growth medium was exchanged with Krebs Ringer Bicarbonate buffer with 1 mM IBMX and incubated at 30° C. for 30 min. Compounds were added to a final assay volume of 100 μl and incubated for 30 min at 30° C. Using the cAMP-Nano-TRF detection kit the assay (Roche Diagnostics) was stopped by the addition of 50 μl lysis reagent (Tris, NaCl, 1.5% Triton X100, 2.5% NP40, 10% NaN3) and 50 μl detection solutions (20 μM mAb Alexa700-cAMP 1:1, and 48 μM Ruthenium-2-AHA-cAMP) and shaken for 2 h at room temperature. The time-resolved energy transfer is measured by a TRF reader (Evotec Technologies GmbH), equipped with a ND:YAG laser as excitation source. The plate is measured twice with the excitation at 355 nm and at the emission with a delay of 100 ns and a gate of 100 ns, total exposure time 10s at 730 (bandwidth 30 nm) or 645 nm (bandwidth 75 nm), respectively. The FRET signal is calculated as follows: FRET=T730-Alexa730-P(T645-B645) with P=Ru730-B730/Ru645-B645, where T730 is the test well measured at […], T645 is the test well measured at 645 nm, B730 and B645 are the buffer controls at 730 nm and 645 nm, respectively. cAMP content is determined from the function of a standard curve spanning from 10 μM to 0.13 nM cAMP.
EC50 values were determined using Activity Base analysis (ID Business Solution, Limited). The EC50 values for a wide range of cannabinoid agonists generated from this assay were in agreement with the values published in the scientific literature.
`NC(=O)[C@H]1CCCC[C@H]1NC(=O)c1cnc(N2CC(F)(F)C2)c(OCC2CC2)n1` (single isomer, unassigned) [Example 81] registered an EC50 of 0.0312 µM.

The same test, now with this note: functional cAMP assay, CHO cells expressing human CB2; read-out: human CB2 EC50.
Take `NC(=O)[C@@H](NC(=O)c1cnc(C2CC2)c(OCC2CC2)n1)c1ccc(F)cc1` [Example 63, 5-Cyclopropyl-6-cyclopropylmethoxy-pyrazine-2-carboxylic acid [(S)-carbamoyl-(4-fluoro-phenyl)-methyl]-amide]: the EC50 turned out to be 0.0966 µM.
Still for that read-out and setting: in the case of `NC(=O)[C@@H](NC(=O)c1cnc(N2CC(F)(F)C2)c(OCC2CC2)n1)c1ccc(F)cc1` [Example 64, 6-Cyclopropylmethoxy-5-(3,3-difluoro-azetidin-1-yl)-pyrazine-2-carboxylic acid [(S)-carbamoyl-(4-fluoro-phenyl)-methyl]-amide] it was 0.0312 µM; in that of `Cc1nc([C@H](CC2CC2)NC(=O)c2cnc(C3CC3)c(OCC3CC3)n2)no1` [Example 65, 5-Cyclopropyl-6-cyclopropylmethoxy-pyrazine-2-carboxylic acid [(S)-2-cyclopropyl-1-(5-methyl-[1,2,4]oxadiazol-3-yl)-ethyl]-amide], 0.0207 µM; in that of `COC(=O)[C@H](CC(C)C)NC(=O)c1cnc(N2CC(F)(F)C2)c(OCC2CC2)n1` [Example 66, (S)-2-{[6-Cyclopropylmethoxy-5-(3,3-difluoro-azetidin-1-yl)-pyrazine-2-carbonyl]-amino}-4-methyl-pentanoic acid methyl ester], 0.0004 µM.
Still for that read-out and setting: in the case of `CC(C)C[C@H](NC(=O)c1cnc(N2CC(F)(F)C2)c(OCC2CC2)n1)C(=O)NCC(F)(F)F` [Example 67, 6-Cyclopropylmethoxy-5-(3,3-difluoro-azetidin-1-yl)-pyrazine-2-carboxylic acid [(S)-3-methyl-1-(2,2,2-trifluoro-ethylcarbamoyl)-butyl]-amide] it was 0.0576 µM; in that of `NC(=O)[C@@H](NC(=O)c1cnc(N2CC(F)(F)C2)c(OCC2CC2)n1)c1ccc(Cl)cc1` [Example 68, 6-Cyclopropylmethoxy-5-(3,3-difluoro-azetidin-1-yl)-pyrazine-2-carboxylic acid [(S)-carbamoyl-(4-chloro-phenyl)-methyl]-amide], 0.116 µM; in that of `CC(C)(CCCO)NC(=O)c1cnc(C2CC2)c(OCC2CC2)n1` [Example 69, 5-Cyclopropyl-6-cyclopropylmethoxy-pyrazine-2-carboxylic acid (4-hydroxy-1,1-dimethyl-butyl)-amide], 0.0474 µM.
The same measure, in the same setting: in the case of `Cc1oc(-c2ccccc2)nc1CC(C)(C)NC(=O)c1cnc(C2CC2)c(OCC2CC2)n1` [Example 71, 5-Cyclopropyl-6-cyclopropylmethoxy-pyrazine-2-carboxylic acid [1,1-dimethyl-2-(5-methyl-2-phenyl-oxazol-4-yl)-ethyl]-amide] it was 0.201 µM.
As to `CC(CC(C)(C)NC(=O)c1cnc(C2CC2)c(OCC2CC2)n1)c1ccncc1` (stereo not shown) [Example 72, 5-Cyclopropyl-6-cyclopropylmethoxy-pyrazine-2-carboxylic acid (1,1-dimethyl-3-pyridin-4-yl-butyl)-amide], the EC50 came to 0.0926 µM.
In the case of `COC(=O)C1(NC(=O)c2cnc(N3CC(F)(F)C3)c(OCC3CC3)n2)CCC1` [Example 73, 1-{[6-Cyclopropylmethoxy-5-(3,3-difluoro-azetidin-1-yl)-pyrazine-2-carbonyl]-amino}-cyclobutanecarboxylic acid methyl ester], the EC50 worked out at 0.0205 µM.
Same read-out and setting: in the case of `CC(C)[C@H](CC(N)=O)NC(=O)c1cnc(C2CC2)c(OCC2CC2)n1` [Example 76, 5-Cyclopropyl-6-cyclopropylmethoxy-pyrazine-2-carboxylic acid ((S)-1-carbamoylmethyl-2-methyl-propyl)-amide] it was 0.0163 µM.
The same measure, in the same setting: in the case of `CC(C)[C@H](CC(N)=O)NC(=O)c1cnc(N2CC(F)(F)C2)c(OCC2CC2)n1` [Example 77, 6-Cyclopropylmethoxy-5-(3,3-difluoro-azetidin-1-yl)-pyrazine-2-carboxylic acid ((S)-1-carbamoylmethyl-2-methyl-propyl)-amide] it was 0.0065 µM.
